Each compound was assayed against T1, USP19 (Homo sapiens, UniProt O94966) (assay: USP19 fluorescence polarisation (FP) homogeneous assay). Conditions: Ubiquitin-Lys-TAMRA substrate, full-length USP19 2.5 nM, average of at least two duplicate experiments.
T1 sequence (O94966 1-1318): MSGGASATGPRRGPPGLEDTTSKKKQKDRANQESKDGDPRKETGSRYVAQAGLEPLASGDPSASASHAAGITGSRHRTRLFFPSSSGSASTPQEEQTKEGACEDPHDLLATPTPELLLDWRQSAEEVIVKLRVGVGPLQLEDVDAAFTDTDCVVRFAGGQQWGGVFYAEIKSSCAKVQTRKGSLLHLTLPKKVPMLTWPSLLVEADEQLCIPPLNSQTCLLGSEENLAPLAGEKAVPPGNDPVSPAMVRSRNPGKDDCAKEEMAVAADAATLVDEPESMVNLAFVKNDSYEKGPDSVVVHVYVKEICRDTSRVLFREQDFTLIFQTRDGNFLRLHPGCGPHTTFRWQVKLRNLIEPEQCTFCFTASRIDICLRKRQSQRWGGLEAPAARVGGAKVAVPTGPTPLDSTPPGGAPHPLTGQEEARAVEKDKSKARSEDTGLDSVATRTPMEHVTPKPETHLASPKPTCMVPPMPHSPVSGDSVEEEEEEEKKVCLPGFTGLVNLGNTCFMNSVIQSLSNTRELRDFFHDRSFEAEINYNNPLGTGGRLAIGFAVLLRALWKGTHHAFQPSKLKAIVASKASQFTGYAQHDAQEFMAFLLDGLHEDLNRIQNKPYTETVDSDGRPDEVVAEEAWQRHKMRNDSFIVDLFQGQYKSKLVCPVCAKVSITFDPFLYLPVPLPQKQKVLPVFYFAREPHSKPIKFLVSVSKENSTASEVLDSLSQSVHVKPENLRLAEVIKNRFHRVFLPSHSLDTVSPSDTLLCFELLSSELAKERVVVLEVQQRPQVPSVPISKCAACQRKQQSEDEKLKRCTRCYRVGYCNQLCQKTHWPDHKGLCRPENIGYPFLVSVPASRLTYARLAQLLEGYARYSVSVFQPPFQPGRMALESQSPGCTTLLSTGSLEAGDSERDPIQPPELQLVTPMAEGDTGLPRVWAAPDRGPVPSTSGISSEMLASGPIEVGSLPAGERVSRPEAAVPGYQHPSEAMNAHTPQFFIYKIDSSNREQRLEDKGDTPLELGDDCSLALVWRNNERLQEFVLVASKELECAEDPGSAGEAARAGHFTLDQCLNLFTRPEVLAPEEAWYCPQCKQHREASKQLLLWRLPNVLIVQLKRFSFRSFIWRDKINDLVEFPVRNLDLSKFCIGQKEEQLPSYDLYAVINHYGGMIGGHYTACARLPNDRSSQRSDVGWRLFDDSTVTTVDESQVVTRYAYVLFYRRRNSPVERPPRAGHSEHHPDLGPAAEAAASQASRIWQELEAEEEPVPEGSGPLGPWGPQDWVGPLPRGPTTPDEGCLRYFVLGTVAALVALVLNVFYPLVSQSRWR
Format: biochemical
Set-up: Full-length USP19 was purchased from Boston Biochem (E-576); purchased Boston Biochem E-576
Method in brief: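 Inhibitors serially diluted in buffer (200 μM to 2 μM, 8-18 points) and preincubated 30 min at RT before starting with 500 nM Ub substrate.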

IC50, < 0.5 µM:
CCOC(=O)c1cn(C[C@]2(O)CCN(C(=O)[C@H](C)CC3CCCCC3)CC23CCCC3)c(=O)cc1-c1ccccc1 [Example 252, Ethyl 1-(((S)-7-((R)-3-cyclohexyl-2-methylpropanoyl)-10-hydroxy-7-azaspiro[4.5]decan-10-yl)methyl)-6-oxo-4-phenyl-1,6-dihydropyridine-3-carboxylate]
C[C@H](CC1CCCCC1)C(=O)N1CC[C@@](O)(Cn2cc(C(=O)O)c(-c3ccccc3)cc2=O)C2(CCCC2)C1 [Example 253, 1-(((S)-7-((R)-3-Cyclohexyl-2-methylpropanoyl)-10-hydroxy-7-azaspiro[4.5]decan-10-yl)methyl)-6-oxo-4-phenyl-1,6-dihydropyridine-3-carboxylic acid]
O=C([C@@H]1CCNC[C@H]1c1ccccc1)N1CCC(O)(Cn2cnc(-c3ccccc3)cc2=O)C2(CCCC2)C1 (stereo partly drawn) [Example 254, 3-((10-Hydroxy-7-((3R,4R)-3-phenylpiperidine-4-carbonyl)-7-azaspiro[4.5]decan-10-yl)methyl)-6-phenylpyrimidin-4(3H)-one]
C[C@H](CC(F)(F)F)C(=O)N1CC[C@@](O)(Cn2cnc(-c3ccccc3)cc2=O)C2(CCCC2)C1 [Example 255, 3-(((S)-10-Hydroxy-7-((R)-4,4,4-trifluoro-2-methylbutanoyl)-7-azaspiro[4.5]decan-10-yl)methyl)-6-phenylpyrimidin-4(3H)-one]
C[C@H](CC(F)(F)F)C(=O)N1CC[C@@](O)(Cn2cnc(-c3ccccc3F)cc2=O)C2(CCCC2)C1 [Example 256, 6-(2-Fluorophenyl)-3-(((S)-10-hydroxy-7-((R)-4,4,4-trifluoro-2-methylbutanoyl)-7-azaspiro[4.5]decan-10-yl)methyl)pyrimidin-4(3H)-one]
C[C@H](CC(F)(F)F)C(=O)N1CC[C@@](O)(Cn2cnc(-c3cccc(F)c3)cc2=O)C2(CCCC2)C1 [Example 257, 6-(3-Fluorophenyl)-3-(((S)-10-hydroxy-7-((R)-4,4,4-trifluoro-2-methylbutanoyl)-7-azaspiro[4.5]decan-10-yl)methyl)pyrimidin-4(3H)-one]
C[C@H](CC(C)(F)F)C(=O)N1CC[C@@](O)(Cn2cnc(-c3ccccc3)cc2=O)C2(CCCC2)C1 [Example 258, 3-(((S)-7-((R)-4,4-Difluoro-2-methylpentanoyl)-10-hydroxy-7-azaspiro[4.5]decan-10-yl)methyl)-6-phenylpyrimidin-4(3H)-one]
